Read-outs that look alike come from different tables or passages of the source.
How the values were obtained:
[1] = molecular target: human full-length recombinant HPK1 (Homo sapiens (Human), UniProt Q92918); assay: HPK1 biochemical enzyme assay, microfluidic mobility shift assay (MSA); conditions: read-out: HPK1 Enzyme Assay_Ki
[2] = tested on: phospho-SLP-76 (Ser376) in Jurkat cells; assay: Phospho-SLP-76 (Ser376) Homogeneous Time Resolved Fluorescence (HTRF) assay in Jurkat cells; type: cell-based; conditions: Homo sapiens, read-out: SLP76 Assay_IC50
Summary of the method: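 Jurkat cells pre-treated 30 min with compounds (10 μM to 0.1 nM, 11-point, 0.1% DMSO), then stimulated with 200 μg/mL F(ab)2-complexed anti-CD3 (UCHT1) for 15 min at 37 °C. Lysate phospho-SLP-76 detected by HTRF after overnight antibody incubation; IC50 from four-parameter fit.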

[3] = mobility shift assay, 75 μM ATP, Morrison equation, tight-binding competitive inhibition
[4] = 30 min pre-treatment, anti-CD3 stimulation 15 min, HTRF
[5] = Phospho-SLP-76 (Ser376) HTRF, anti-CD3 stimulation

human full-length recombinant HPK1, sequence (Q92918 whole entry): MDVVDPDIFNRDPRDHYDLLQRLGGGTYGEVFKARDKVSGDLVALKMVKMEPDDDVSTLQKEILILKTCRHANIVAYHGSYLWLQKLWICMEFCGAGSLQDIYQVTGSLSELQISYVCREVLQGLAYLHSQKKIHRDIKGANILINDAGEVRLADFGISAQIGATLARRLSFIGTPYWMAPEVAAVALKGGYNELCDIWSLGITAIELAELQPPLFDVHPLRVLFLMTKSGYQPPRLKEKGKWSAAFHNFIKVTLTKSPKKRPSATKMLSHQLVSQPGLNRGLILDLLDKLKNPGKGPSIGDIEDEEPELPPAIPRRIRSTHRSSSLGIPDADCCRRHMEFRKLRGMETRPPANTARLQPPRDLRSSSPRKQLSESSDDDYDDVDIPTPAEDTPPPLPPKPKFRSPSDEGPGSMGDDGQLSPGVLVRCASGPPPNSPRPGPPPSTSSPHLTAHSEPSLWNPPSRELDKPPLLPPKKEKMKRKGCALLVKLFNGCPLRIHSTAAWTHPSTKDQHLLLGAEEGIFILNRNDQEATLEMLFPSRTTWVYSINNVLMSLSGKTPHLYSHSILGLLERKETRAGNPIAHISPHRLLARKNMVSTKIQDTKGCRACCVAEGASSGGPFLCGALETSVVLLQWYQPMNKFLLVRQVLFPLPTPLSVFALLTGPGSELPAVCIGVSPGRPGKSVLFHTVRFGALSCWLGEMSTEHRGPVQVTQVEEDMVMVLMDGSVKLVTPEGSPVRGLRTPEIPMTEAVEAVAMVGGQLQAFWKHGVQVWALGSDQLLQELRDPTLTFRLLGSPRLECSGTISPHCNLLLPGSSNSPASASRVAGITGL

Ki [1, 3]	IC50 [2, 4]	Ki ([1]; HPK1 mobility shift assay)	IC50 [2, 5]	Compound
0.17 nM	70 nM			CCN(C)c1cc2c(c(CN)n1)CN(c1cccc(-c3nncn3CC)n1)C2=O [Example 60, 4-(aminomethyl)-6-[ethyl(methyl)amino]-2-[6-(4-ethyl-4H-1,2,4-triazol-3-yl)pyridin-2-yl]-2,3-dihydro-1H-pyrrolo[3,4-c]pyridin-1-one]
0.09 nM	159 nM			CC(C)c1[nH]ncc1-c1cccc(N2Cc3c(cc(N(C)C)nc3CN)C2=O)n1 [Example 11, 4-(aminomethyl)-6-(dimethylamino)-2-{6-[5-(propan-2-yl)-1H-pyrazol-4-yl]pyridin-2-yl}-2,3-dihydro-1H-pyrrolo[3,4-c]pyridin-1-one]
		0.91 nM	106 nM	CCCn1cnnc1-c1cccc(N2Cc3c(cc(N(CC)C(C)C)nc3CN)C2=O)n1 [Example 146, 4-(aminomethyl)-6-[ethyl(propan-2-yl)amino]-2-[6-(4-propyl-4H-1,2,4-triazol-3-yl)pyridin-2-yl]-2,3-dihydro-1H-pyrrolo[3,4-c]pyridin-1-one]
		1.01 nM	147 nM	CCn1c(C)nnc1-c1cccc(N2Cc3c(cc(N4[C@H](C)CC[C@H]4C)nc3CNC)C2=O)n1 [Example 111, 6-[(2R,5R)-2,5-dimethylpyrrolidin-1-yl]-2-[6-(4-ethyl-5-methyl-4H-1,2,4-triazol-3-yl)pyridin-2-yl]-4-[(methylamino)methyl]-2,3-dihydro-1H-pyrrolo[3,4-c]pyridin-1-one]
		0.46 nM	89 nM	CCC(CC)n1cnnc1-c1cccc(N2Cc3c(cc(N(C)C)nc3CN)C2=O)n1 [Example 117, 4-(aminomethyl)-6-(dimethylamino)-2-{6-[4-(pentan-3-yl)-4H-1,2,4-triazol-3-yl]pyridin-2-yl}-2,3-dihydro-1H-pyrrolo[3,4-c]pyridin-1-one]
		0.42 nM	713 nM	CCCn1cnnc1-c1cccc(N2Cc3c(cc(N4CCC4)nc3CNC)C2=O)n1 [Example 93, 6-(azetidin-1-yl)-4-[(methylamino)methyl]-2-[6-(4-propyl-4H-1,2,4-triazol-3-yl)pyridin-2-yl]-2,3-dihydro-1H-pyrrolo[3,4-c]pyridin-1-one]
		0.58 nM	406 nM	CNCc1nc(N(C)C(C)C)cc2c1CN(c1cccc(-c3nncn3C)n1)C2=O [Example 81, 4-[(methylamino)methyl]-6-[methyl(propan-2-yl)amino]-2-[6-(4-methyl-4H-1,2,4-triazol-3-yl)pyridin-2-yl]-2,3-dihydro-1H-pyrrolo[3,4-c]pyridin-1-one]
		1.03 nM	273 nM	CCN(c1cc2c(c(CN)n1)CN(c1cccc(N3C(=O)OC[C@@H]3CF)n1)C2=O)C(C)C [Example 123, 4-(aminomethyl)-6-[ethyl(propan-2-yl)amino]-2-{6-[(4R)-4-(fluoromethyl)-2-oxo-1,3-oxazolidin-3-yl]pyridin-2-yl}-2,3-dihydro-1H-pyrrolo[3,4-c]pyridin-1-one]
		0.29 nM	74 nM	[2H]C([2H])([2H])C([2H])([2H])N(c1cc2c(c(CNC)n1)CN(c1cccc(-c3nncn3CC)n1)C2=O)C([2H])([2H])C([2H])([2H])[2H] [Example 102, 6-{bis[(pentadeuterio)ethyl]amino}-2-[6-(4-ethyl-4H-1,2,4-triazol-3-yl)pyridin-2-yl]-4-[(methylamino)methyl]-2,3-dihydro-1H-pyrrolo[3,4-c]pyridin-1-one]
0.16 nM	103 nM			CC[C@H](C)n1cnnc1-c1cccc(N2Cc3c(cc(C4(C)CC4)nc3CNC)C2=O)n1 [Example 58, 2-(6-{4-[(2S)-butan-2-yl]-4H-1,2,4-triazol-3-yl}pyridin-2-yl)-4-[(methylamino)methyl]-6-(1-methylcyclopropyl)-2,3-dihydro-1H-pyrrolo[3,4-c]pyridin-1-one]
0.21 nM	74 nM			CCC(CC)n1cnnc1-c1cccc(N2Cc3c(cc(C4(C)CC4)nc3CNC)C2=O)n1 [Example 57, 4-[(methylamino)methyl]-6-(1-methylcyclopropyl)-2-{6-[4-(pentan-3-yl)-4H-1,2,4-triazol-3-yl]pyridin-2-yl}-2,3-dihydro-1H-pyrrolo[3,4-c]pyridin-1-one]
		0.4 nM	142 nM	CCN(CC)c1cc2c(c(CNC)n1)CN(c1cccc(-c3cnc(C)n3CC)n1)C2=O [Example 96, 6-(diethylamino)-2-[6-(1-ethyl-2-methyl-1H-imidazol-5-yl)pyridin-2-yl]-4-[(methylamino)methyl]-2,3-dihydro-1H-pyrrolo[3,4-c]pyridin-1-one]
0.19 nM	59 nM			CCCn1cnnc1-c1cccc(N2Cc3c(cc(N(C)CC)nc3CNC)C2=O)n1 [Example 59, 6-[ethyl(methyl)amino]-4-[(methylamino)methyl]-2-[6-(4-propyl-4H-1,2,4-triazol-3-yl)pyridin-2-yl]-2,3-dihydro-1H-pyrrolo[3,4-c]pyridin-1-one]
0.28 nM	86 nM			CNCc1nc(N2CCC2)cc2c1CN(c1cccc(-c3nncn3C(C)C)n1)C2=O [Example 2, 6-(azetidin-1-yl)-4-[(methylamino)methyl]-2-{6-[4-(propan-2-yl)-4H-1,2,4-triazol-3-yl]pyridin-2-yl}-2,3-dihydro-1H-pyrrolo[3,4-c]pyridin-1-one]
		0.15 nM	151 nM	CCn1c(C)nnc1-c1cccc(N2Cc3c(cc(N4CCCC4(C)C)nc3CN)C2=O)n1 [Example 154]
		0.14 nM	138 nM	CCN(c1cc2c(c(CNC)n1)CN(c1cccc(-c3nncn3CC)n1)C2=O)C(C)C [Example 84, 6-[ethyl(propan-2-yl)amino]-2-[6-(4-ethyl-4H-1,2,4-triazol-3-yl)pyridin-2-yl]-4-[(methylamino)methyl]-2,3-dihydro-1H-pyrrolo[3,4-c]pyridin-1-one]
0.14 nM	94 nM			CCCn1cnnc1-c1cccc(N2Cc3c(cc(N(C)C)nc3CNC)C2=O)n1 [Example 46, 6-(dimethylamino)-4-[(methylamino)methyl]-2-[6-(4-propyl-4H-1,2,4-triazol-3-yl)pyridin-2-yl]-2,3-dihydro-1H-pyrrolo[3,4-c]pyridin-1-one]
